Results from ChEMBL document CHEMBL5463729, “Data for DCP probe BAY 1753011” (2023).

Assays:
Conditions in all cases: Compound concentration 10.0 uM
[1] = biological target: Bone morphogenetic protein receptor type-1B (Homo sapiens) (UniProt O00238); assay: Inhibition of ALK6(h) at 10.0 µM in the Eurofins Kinase panel
[2] = biological target: BMP-2-inducible protein kinase (Homo sapiens) (UniProt Q9NSY1); assay: Inhibition of BIKe(h) at 10.0 µM in the Eurofins Kinase panel
[3] = biological target: Calcium/calmodulin-dependent protein kinase type 1 (Homo sapiens) (UniProt Q14012); assay: Inhibition of CaMKI(h) at 10.0 µM in the Eurofins Kinase panel
[4] = biological target: CDC7/Cyclin B1 (Homo sapiens) (UniProt P14635+O00311); assay: Inhibition of Cdc7/cyclinB1(h) at 10.0 µM in the Eurofins Kinase panel; format: protein-complex assay
[5] = biological target: CDK17/Cyclin-Y (Homo sapiens) (UniProt Q00537+Q8ND76); assay: Inhibition of CDK17/cyclinY(h) at 10.0 µM in the Eurofins Kinase panel; format: protein-complex assay
[6] = biological target: Cyclin-dependent kinase 2/cyclin E1 (Homo sapiens) (UniProt P24864+P24941); assay: Inhibition of CDK2/cyclinE(h) at 10.0 µM in the Eurofins Kinase panel; format: protein-complex assay
[7] = biological target: Serine/threonine-protein kinase 35 (Homo sapiens) (UniProt Q8TDR2); assay: Inhibition of CLIK1(h) at 10.0 µM in the Eurofins Kinase panel
[8] = biological target: RAF proto-oncogene serine/threonine-protein kinase (Homo sapiens) (UniProt P04049); assay: Inhibition of c-RAF(h) at 10.0 µM in the Eurofins Kinase panel
[9] = biological target: Serine/threonine-protein kinase DCLK1 (Homo sapiens) (UniProt O15075); assay: Inhibition of DCAMKL1(h) at 10.0 µM in the Eurofins Kinase panel
[10] = biological target: Epithelial discoidin domain-containing receptor 1 (Homo sapiens) (UniProt Q08345); assay: Inhibition of DDR1(h) at 10.0 µM in the Eurofins Kinase panel
[11] = biological target: Dual specificity tyrosine-phosphorylation-regulated kinase 3 (Homo sapiens) (UniProt O43781); assay: Inhibition of DYRK3(h) at 10.0 µM in the Eurofins Kinase panel
[12] = biological target: Ephrin type-A receptor 1 (Homo sapiens) (UniProt P21709); assay: Inhibition of EphA1(h) at 10.0 µM in the Eurofins Kinase panel
[13] = biological target: Ephrin type-B receptor 2 (Homo sapiens) (UniProt P29323); assay: Inhibition of EphB2(h) at 10.0 µM in the Eurofins Kinase panel
[14] = biological target: Ephrin type-B receptor 3 (Homo sapiens) (UniProt P54753); assay: Inhibition of EphB3(h) at 10.0 µM in the Eurofins Kinase panel
[15] = biological target: Fibroblast growth factor receptor 1 (Homo sapiens) (UniProt P11362); assay: Inhibition of FGFR1(h) at 10.0 µM in the Eurofins Kinase panel
[16] = biological target: Serine/threonine-protein kinase/endoribonuclease IRE1 (Homo sapiens) (UniProt O75460); assay: Inhibition of IRE1(h) at 10.0 µM in the Eurofins Kinase panel
[17] = biological target: Tyrosine-protein kinase Lck (Homo sapiens) (UniProt P06239); assay: Inhibition of Lck(h) activated at 10.0 µM in the Eurofins Kinase panel
[18] = biological target: Leucine-rich repeat serine/threonine-protein kinase 2 (Homo sapiens) (UniProt Q5S007); assay: Inhibition of LRRK2(h) at 10.0 µM in the Eurofins Kinase panel
[19] = biological target: Serine/threonine-protein kinase MAK (Homo sapiens) (UniProt P20794); assay: Inhibition of MAK(h) at 10.0 µM in the Eurofins Kinase panel
[20] = biological target: Serine/threonine-protein kinase pim-1 (Homo sapiens) (UniProt P11309); assay: Inhibition of Pim-1(h) at 10.0 µM in the Eurofins Kinase panel
[21] = biological target: Serine/threonine-protein kinase PLK3 (Homo sapiens) (UniProt Q9H4B4); assay: Inhibition of Plk3(h) at 10.0 µM in the Eurofins Kinase panel
[22] = biological target: Serine/threonine-protein kinase PRP4 homolog (Homo sapiens) (UniProt Q13523); assay: Inhibition of PRP4(h) at 10.0 µM in the Eurofins Kinase panel
[23] = biological target: SRSF protein kinase 1 (Homo sapiens) (UniProt Q96SB4); assay: Inhibition of SRPK1(h) at 10.0 µM in the Eurofins Kinase panel
[24] = biological target: Mitogen-activated protein kinase kinase kinase 7 (Homo sapiens) (UniProt O43318); assay: Inhibition of TAK1(h) at 10.0 µM in the Eurofins Kinase panel
[25] = biological target: Serine/threonine-protein kinase WNK4 (Homo sapiens) (UniProt Q96J92); assay: Inhibition of WNK4(h) at 10.0 µM in the Eurofins Kinase panel
[26] = biological target: Phosphatidylinositol 4-phosphate 3-kinase C2 domain-containing subunit alpha (Homo sapiens) (UniProt O00443); assay: Inhibition of PI3KC2a(h) at 10.0 µM in the Eurofins Kinase panel
[27] = biological target: Phosphatidylinositol 4-phosphate 5-kinase type-1 gamma (Homo sapiens) (UniProt O60331); assay: Inhibition of PIP5K1g(h) at 10.0 µM in the Eurofins Kinase panel
[28] = biological target: 5-hydroxytryptamine receptor 6 (Homo sapiens) (UniProt P50406)
[29] = biological target: Histamine H3 receptor (Homo sapiens) (UniProt Q9Y5N1)
[30] = biological target: T1, Alpha-1D adrenergic receptor (Homo sapiens) (UniProt P25100)
T1 sequence (whole entry): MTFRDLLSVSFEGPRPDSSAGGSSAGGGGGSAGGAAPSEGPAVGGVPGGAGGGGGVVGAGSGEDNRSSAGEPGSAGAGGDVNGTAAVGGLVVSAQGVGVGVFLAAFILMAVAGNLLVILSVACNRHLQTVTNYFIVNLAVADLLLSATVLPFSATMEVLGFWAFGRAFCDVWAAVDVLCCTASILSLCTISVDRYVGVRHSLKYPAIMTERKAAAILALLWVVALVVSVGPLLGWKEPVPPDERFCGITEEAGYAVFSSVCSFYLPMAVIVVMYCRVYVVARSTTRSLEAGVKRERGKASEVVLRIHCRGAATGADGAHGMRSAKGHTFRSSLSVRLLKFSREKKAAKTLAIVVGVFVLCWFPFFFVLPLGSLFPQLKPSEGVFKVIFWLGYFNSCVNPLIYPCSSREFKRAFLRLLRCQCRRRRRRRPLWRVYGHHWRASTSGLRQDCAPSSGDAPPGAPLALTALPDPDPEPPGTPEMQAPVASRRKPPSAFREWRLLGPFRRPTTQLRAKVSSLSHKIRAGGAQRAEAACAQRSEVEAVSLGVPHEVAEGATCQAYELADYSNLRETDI

[31] = biological target: Histamine H1 receptor (Homo sapiens) (UniProt P35367)
[32] = biological target: 5-hydroxytryptamine receptor 2B (Homo sapiens) (UniProt P41595)

Chain of 5-hydroxytryptamine receptor 6 (Homo sapiens) (P50406 whole entry): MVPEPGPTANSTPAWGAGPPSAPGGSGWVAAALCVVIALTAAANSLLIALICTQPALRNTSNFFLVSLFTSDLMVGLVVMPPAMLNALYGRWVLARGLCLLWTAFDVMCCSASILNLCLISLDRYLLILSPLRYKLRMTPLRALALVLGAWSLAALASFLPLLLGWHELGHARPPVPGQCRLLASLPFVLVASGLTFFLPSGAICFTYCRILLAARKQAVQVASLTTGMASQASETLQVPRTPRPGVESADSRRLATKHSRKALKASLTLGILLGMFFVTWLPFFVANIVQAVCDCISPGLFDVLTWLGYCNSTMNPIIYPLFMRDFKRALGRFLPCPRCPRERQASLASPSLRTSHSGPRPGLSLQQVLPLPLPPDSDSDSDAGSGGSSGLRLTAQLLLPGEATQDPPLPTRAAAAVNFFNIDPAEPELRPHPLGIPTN
Chain of Histamine H3 receptor (Homo sapiens) (Q9Y5N1 whole entry): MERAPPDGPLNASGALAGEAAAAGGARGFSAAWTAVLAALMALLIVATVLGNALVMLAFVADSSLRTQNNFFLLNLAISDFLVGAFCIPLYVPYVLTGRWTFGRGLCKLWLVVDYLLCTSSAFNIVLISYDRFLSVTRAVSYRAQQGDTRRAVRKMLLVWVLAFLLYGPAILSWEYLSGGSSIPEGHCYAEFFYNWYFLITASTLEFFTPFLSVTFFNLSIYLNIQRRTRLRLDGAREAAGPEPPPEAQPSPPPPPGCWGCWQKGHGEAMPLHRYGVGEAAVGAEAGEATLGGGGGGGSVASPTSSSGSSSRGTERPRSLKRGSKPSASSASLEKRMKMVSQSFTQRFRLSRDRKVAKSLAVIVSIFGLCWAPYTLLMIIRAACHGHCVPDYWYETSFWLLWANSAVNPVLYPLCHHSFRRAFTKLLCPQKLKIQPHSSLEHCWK
Chain of Serine/threonine-protein kinase 35 (Homo sapiens) (Q8TDR2 whole entry): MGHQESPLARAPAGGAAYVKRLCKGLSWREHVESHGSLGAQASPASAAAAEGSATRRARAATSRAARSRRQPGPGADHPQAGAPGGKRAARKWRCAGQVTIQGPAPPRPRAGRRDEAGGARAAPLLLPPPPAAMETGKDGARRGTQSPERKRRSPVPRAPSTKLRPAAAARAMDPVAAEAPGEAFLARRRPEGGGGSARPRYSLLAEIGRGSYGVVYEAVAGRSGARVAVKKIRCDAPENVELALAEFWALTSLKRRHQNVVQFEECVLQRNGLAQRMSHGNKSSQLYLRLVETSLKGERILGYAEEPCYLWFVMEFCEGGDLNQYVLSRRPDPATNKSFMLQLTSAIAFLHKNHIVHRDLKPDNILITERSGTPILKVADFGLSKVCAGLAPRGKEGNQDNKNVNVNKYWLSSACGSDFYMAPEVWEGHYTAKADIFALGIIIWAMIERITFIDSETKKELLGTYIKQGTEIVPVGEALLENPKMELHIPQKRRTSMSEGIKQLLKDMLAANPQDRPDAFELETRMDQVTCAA
Chain of Phosphatidylinositol 4-phosphate 5-kinase type-1 gamma (Homo sapiens) (O60331 whole entry): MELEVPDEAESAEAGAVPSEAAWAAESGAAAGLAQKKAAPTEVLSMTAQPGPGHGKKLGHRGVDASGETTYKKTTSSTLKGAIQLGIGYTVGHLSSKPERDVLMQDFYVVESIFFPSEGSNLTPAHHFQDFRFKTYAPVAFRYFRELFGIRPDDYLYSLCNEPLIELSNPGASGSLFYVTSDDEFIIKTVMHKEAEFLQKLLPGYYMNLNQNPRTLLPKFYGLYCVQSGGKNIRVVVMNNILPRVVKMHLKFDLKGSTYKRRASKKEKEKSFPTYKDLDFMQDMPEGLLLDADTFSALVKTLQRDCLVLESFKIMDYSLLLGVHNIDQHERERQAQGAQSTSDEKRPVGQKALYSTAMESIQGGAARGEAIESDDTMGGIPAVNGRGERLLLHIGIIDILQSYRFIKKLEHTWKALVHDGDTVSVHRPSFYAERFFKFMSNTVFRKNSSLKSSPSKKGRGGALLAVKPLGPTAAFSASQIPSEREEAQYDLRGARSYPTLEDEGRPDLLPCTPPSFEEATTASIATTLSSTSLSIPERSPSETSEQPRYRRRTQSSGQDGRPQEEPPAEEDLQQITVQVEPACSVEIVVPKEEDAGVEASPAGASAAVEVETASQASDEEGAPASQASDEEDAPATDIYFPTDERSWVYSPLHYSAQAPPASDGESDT
Chain of Calcium/calmodulin-dependent protein kinase type 1 (Homo sapiens) (Q14012 whole entry, looked up): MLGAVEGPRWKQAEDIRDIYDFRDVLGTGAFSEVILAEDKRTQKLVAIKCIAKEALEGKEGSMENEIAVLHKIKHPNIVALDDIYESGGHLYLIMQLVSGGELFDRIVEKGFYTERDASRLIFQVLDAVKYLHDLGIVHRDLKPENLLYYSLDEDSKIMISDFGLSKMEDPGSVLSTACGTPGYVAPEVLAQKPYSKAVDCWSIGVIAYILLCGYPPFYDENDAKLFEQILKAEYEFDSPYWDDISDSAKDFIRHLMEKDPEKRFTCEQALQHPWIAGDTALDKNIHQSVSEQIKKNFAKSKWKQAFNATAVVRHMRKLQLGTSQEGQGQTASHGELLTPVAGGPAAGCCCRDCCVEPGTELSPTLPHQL
Chain of CDK17/Cyclin-Y (Homo sapiens) (Q00537 whole entry): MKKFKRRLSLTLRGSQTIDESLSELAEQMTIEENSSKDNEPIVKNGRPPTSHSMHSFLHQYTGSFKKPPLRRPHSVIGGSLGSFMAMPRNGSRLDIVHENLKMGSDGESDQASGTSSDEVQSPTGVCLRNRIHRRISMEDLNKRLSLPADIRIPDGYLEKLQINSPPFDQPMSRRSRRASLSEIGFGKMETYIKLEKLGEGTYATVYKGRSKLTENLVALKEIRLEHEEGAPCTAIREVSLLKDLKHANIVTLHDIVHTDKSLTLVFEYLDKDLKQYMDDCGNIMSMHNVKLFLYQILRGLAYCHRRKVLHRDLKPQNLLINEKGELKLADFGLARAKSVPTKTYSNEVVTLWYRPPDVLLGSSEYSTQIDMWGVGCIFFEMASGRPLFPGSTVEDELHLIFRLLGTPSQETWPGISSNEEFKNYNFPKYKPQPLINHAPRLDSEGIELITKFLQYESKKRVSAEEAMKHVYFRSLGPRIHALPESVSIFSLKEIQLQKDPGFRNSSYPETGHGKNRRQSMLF
Chain of CDK17/Cyclin-Y (Homo sapiens) (Q8ND76 2-341 partner limits assumed): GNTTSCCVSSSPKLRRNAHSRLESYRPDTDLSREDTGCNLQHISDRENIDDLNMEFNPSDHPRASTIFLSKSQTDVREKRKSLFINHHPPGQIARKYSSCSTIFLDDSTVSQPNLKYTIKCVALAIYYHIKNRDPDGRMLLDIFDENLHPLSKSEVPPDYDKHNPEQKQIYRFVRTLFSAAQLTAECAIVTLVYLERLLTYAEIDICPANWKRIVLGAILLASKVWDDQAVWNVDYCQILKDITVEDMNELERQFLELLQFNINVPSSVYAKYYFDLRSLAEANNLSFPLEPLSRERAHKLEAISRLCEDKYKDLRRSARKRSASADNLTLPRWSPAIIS
Chain of RAF proto-oncogene serine/threonine-protein kinase (Homo sapiens) (P04049 whole entry): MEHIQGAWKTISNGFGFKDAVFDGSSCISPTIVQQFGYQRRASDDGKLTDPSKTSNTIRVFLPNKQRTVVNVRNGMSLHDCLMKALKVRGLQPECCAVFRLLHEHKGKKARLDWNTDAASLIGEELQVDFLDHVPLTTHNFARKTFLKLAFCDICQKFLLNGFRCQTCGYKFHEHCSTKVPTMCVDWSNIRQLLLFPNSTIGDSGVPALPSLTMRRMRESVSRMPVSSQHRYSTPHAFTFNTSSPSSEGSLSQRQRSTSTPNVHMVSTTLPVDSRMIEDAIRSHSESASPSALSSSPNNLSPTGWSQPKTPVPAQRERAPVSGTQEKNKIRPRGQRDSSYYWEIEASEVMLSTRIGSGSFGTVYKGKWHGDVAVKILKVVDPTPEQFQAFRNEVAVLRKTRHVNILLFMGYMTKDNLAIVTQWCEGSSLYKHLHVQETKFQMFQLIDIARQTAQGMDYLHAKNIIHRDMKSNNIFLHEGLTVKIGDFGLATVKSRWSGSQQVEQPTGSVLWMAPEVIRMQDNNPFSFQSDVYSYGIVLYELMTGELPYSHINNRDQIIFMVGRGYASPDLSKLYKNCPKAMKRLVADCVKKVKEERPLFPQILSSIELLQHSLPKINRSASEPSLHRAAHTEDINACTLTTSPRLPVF
Chain of Ephrin type-B receptor 3 (Homo sapiens) (P54753 whole entry): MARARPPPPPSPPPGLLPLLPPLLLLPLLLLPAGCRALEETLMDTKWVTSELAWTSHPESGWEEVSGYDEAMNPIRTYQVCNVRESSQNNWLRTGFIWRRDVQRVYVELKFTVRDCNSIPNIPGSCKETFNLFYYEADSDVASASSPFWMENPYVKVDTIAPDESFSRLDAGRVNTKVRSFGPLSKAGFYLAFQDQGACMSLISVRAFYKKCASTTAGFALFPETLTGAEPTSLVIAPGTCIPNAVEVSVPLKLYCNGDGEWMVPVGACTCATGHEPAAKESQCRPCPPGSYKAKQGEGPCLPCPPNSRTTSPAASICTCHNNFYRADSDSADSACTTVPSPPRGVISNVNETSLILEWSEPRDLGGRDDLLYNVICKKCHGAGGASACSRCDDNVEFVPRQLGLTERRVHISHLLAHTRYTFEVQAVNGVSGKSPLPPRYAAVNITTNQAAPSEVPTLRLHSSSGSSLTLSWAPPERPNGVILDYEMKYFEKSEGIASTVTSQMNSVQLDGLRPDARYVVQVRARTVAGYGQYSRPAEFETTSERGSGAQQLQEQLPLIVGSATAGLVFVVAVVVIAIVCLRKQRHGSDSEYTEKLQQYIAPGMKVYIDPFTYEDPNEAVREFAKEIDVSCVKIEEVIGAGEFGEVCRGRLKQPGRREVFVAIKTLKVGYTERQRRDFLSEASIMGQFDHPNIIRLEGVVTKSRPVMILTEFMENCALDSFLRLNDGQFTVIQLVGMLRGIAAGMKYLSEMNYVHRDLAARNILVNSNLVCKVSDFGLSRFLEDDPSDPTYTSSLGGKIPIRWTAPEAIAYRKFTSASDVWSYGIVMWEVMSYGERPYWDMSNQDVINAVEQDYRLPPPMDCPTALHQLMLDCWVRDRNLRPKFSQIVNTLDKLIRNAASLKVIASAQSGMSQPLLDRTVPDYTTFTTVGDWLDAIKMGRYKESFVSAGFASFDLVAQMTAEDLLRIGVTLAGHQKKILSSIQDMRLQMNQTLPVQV

| SMILES | inhibition [1] [%] | inhibition [2] [%] | inhibition [3] [%] | inhibition [4] [%] | inhibition [5] [%] | inhibition [6] [%] | inhibition [7] [%] | inhibition [8] [%] | inhibition [9] [%] | inhibition [10] [%] | inhibition [11] [%] | inhibition [12] [%] | inhibition [13] [%] | inhibition [14] [%] | inhibition [15] [%] | inhibition [16] [%] | inhibition [17] [%] | inhibition [18] [%] | inhibition [19] [%] | inhibition [20] [%] | also measured |
| --- | --- | --- | --- | --- | --- | --- | --- | --- | --- | --- | --- | --- | --- | --- | --- | --- | --- | --- | --- | --- | --- |
| O=c1n(Cc2cncn2-c2cccc(Cl)c2)nc(-c2ccc(Cl)cc2)n1C[C@H](O)C(F)(F)F | -0.99 | -1.55 | -4.98 | 3.68 | 3.78 | 3.43 | 7.34 | -1.49 | -2.6 | 0.92 | -6.33 | 2.94 | -4.8 | 7.39 | -0.06 | 19.2 | 2.09 | 10.3 | 3.99 | 6.13 | inhibition [21]: -0.3%; inhibition [22]: -1.84%; inhibition [23]: -4.61%; inhibition [24]: -1.55%; inhibition [25]: 2.45%; inhibition [26]: 27.5%; inhibition [27]: -0.37%; inhibition [28]: 1.09%; inhibition [29]: 5.05%; inhibition [30]: -1.97%; inhibition [31]: 9%; inhibition [32]: 12% |
| C[C@H](O)c1nc(Cn2nc(-c3ccc(Cl)cc3)n(C[C@H](O)C(F)(F)F)c2=O)nn1-c1cccc(Cl)c1 [PECAVAPTAN] | -1.01 | -0.71 | -5.17 | 9.78 | 5.47 | -0.04 | 9.3 | -1.46 | -1.32 | 7.3 | -1.79 | 7.71 | 6.86 | 1.81 | 1.76 | 5.58 | -0.21 | 5.14 | 5.13 | 0.99 | inhibition [21]: 0.49%; inhibition [22]: 6.82%; inhibition [23]: -6.76%; inhibition [24]: -6.39%; inhibition [25]: 10.5%; inhibition [26]: 11.6%; inhibition [27]: -2.06%; inhibition [28]: 17.4%; inhibition [29]: 11.9%; inhibition [30]: -0.23%; inhibition [31]: -1%; inhibition [32]: 52% |
